Assay results published in PubChem BioAssay (NCI).
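Method: 48-hour compound exposure of cells in 96-well plates, five concentrations, linear interpolation of endpoints. GI50 is the concentration that inhibits growth by half. TGI: total growth inhibition.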

Legend:
Assay in all cases: NCI anticancer screen, dose series, 48 h
[1] = system: 786-0 renal
[2] = system: HL-60(TB) leukemia
[3] = system: OVCAR-3 ovarian
[4] = system: BT-549 breast
[5] = system: UACC-62 melanoma
[6] = system: LOX IMVI melanoma
[7] = system: NCI-H23 lung
[8] = system: U251 CNS
[9] = system: MDA-MB-435
[10] = system: TK-10 renal
[11] = system: A549 NSCLC
[12] = system: SR leukemia
[13] = system: ACHN renal
[14] = system: SF-268 CNS
[15] = system: SNB-75 CNS
[16] = system: UO-31 renal
[17] = system: CCRF-CEM leukemia
[18] = system: OVCAR-5 ovarian
[19] = system: SW-620 colon
[20] = system: HCT-15 colon
[21] = system: HOP-62 NSCLC
[22] = system: CAKI-1 renal
[23] = system: IGROV1 ovarian
[24] = system: EKVX NSCLC
[25] = system: HOP-92 NSCLC
[26] = system: K-562 leukemia
[27] = system: OVCAR-4 ovarian
[28] = system: T-47D breast
[29] = system: SN12C renal
[30] = system: NCI-H522 lung
[31] = system: SK-OV-3 ovarian
[32] = system: NCI-H460 lung
[33] = system: HCT-116 colon
[34] = system: NCI/ADR-RES ovarian
[35] = system: HT29 colon
[36] = system: SF-295 CNS
[37] = system: RXF 393 renal
[38] = system: KM12 colon
[39] = system: A498 renal
[40] = system: SF-539 CNS
[41] = system: NCI-H226 lung
[42] = system: MOLT-4 leukemia
[43] = system: HCC-2998 colon
[44] = system: PC-3 prostate
[45] = system: DU-145 prostate
[46] = system: COLO 205 colon
[47] = system: SK-MEL-2 melanoma
[48] = system: SK-MEL-28 melanoma
[49] = system: MALME-3M melanoma
[50] = system: SK-MEL-5 melanoma
[51] = system: SNB-19 CNS
[52] = system: UACC-257 melanoma
[53] = system: MDA-MB-231 breast
[54] = system: M14 melanoma
[55] = system: MCF7 breast
[56] = system: RPMI-8226 leukemia
[57] = system: HS 578T breast
[58] = system: OVCAR-8 ovarian

CC(C)OC(=O)c1cc(NS(=O)(=O)c2ccc3ccccc3c2)cc(C(=O)OC(C)C)c1
GI50 [1]: 30.9 µM
TGI [1]: > 100 µM
GI50 [2]: 24.2 µM
TGI [2]: 65.8 µM
GI50 [3]: 24 µM
TGI [3]: 94.7 µM
GI50 [4]: 17.2 µM
TGI [4]: 43.2 µM
GI50 [5]: 17 µM
TGI [5]: 48.6 µM
GI50 [6]: 28.5 µM
TGI [6]: > 100 µM
GI50 [7]: 21.9 µM
TGI [7]: 73.9 µM
GI50 [8]: 31.7 µM
TGI [8]: > 100 µM
GI50 [9]: 23.1 µM
TGI [9]: 73.2 µM
GI50 [10]: 45.2 µM
TGI [10]: > 100 µM
GI50 [11]: 27.1 µM
TGI [11]: 93.5 µM
GI50 [12]: 24.5 µM
TGI [12]: 76.2 µM
GI50 [13]: 33.1 µM
TGI [13]: > 100 µM
GI50 [14]: 15.8 µM
TGI [14]: 57.3 µM
GI50 [15]: 23.9 µM
TGI [15]: 66.2 µM
GI50 [16]: 26.4 µM
TGI [16]: > 100 µM
GI50 [17]: 22.5 µM
TGI [17]: 88.9 µM
GI50 [18]: 18.3 µM
TGI [18]: 48.8 µM
GI50 [19]: 30.3 µM
TGI [19]: > 100 µM
GI50 [20]: 28.4 µM
TGI [20]: > 100 µM
GI50 [21]: 33.1 µM
TGI [21]: > 100 µM
GI50 [22]: 36.4 µM
TGI [22]: > 100 µM
GI50 [23]: 35.2 µM
TGI [23]: > 100 µM
GI50 [24]: 25 µM
TGI [24]: 89.2 µM
GI50 [25]: 24.9 µM
TGI [25]: 64.9 µM
GI50 [26]: 29.6 µM
TGI [26]: > 100 µM
GI50 [27]: 22 µM
TGI [27]: 82.3 µM
GI50 [28]: 17.6 µM
TGI [28]: 58.5 µM
GI50 [29]: 29.9 µM
TGI [29]: > 100 µM
GI50 [30]: 18.3 µM
TGI [30]: 45.9 µM
GI50 [31]: 32.3 µM
TGI [31]: > 100 µM
GI50 [32]: 13.4 µM
TGI [32]: 38.8 µM
GI50 [33]: 24.2 µM
TGI [33]: > 100 µM
GI50 [34]: 16.3 µM
TGI [34]: 56.6 µM
GI50 [35]: 34.1 µM
TGI [35]: > 100 µM
GI50 [36]: 22.2 µM
TGI [36]: 79.7 µM
GI50 [37]: 20.9 µM
TGI [37]: > 100 µM
GI50 [38]: 32.3 µM
TGI [38]: > 100 µM
GI50 [39]: 17.2 µM
TGI [39]: 54.9 µM
GI50 [40]: 24.6 µM
TGI [40]: 61.3 µM
GI50 [41]: 26.8 µM
TGI [41]: > 100 µM
GI50 [42]: 22 µM
TGI [42]: 63.4 µM
GI50 [43]: 17.3 µM
TGI [43]: 47.2 µM
GI50 [44]: 23.8 µM
TGI [44]: 91.8 µM
GI50 [45]: 28.8 µM
TGI [45]: > 100 µM
GI50 [46]: 16 µM
TGI [46]: 34.3 µM
GI50 [47]: 26.2 µM
TGI [47]: 73.6 µM
GI50 [48]: 24.6 µM
TGI [48]: 73.2 µM
GI50 [49]: 32.7 µM
TGI [49]: > 100 µM
GI50 [50]: 16 µM
TGI [50]: 31.8 µM
GI50 [51]: 33.5 µM
TGI [51]: > 100 µM
GI50 [52]: 30.5 µM
TGI [52]: > 100 µM
GI50 [53]: 21.4 µM
TGI [53]: 76.5 µM
GI50 [54]: 17.6 µM
TGI [54]: 46.8 µM
GI50 [55]: 12.3 µM
TGI [55]: 45.3 µM
GI50 [56]: 15.6 µM
TGI [56]: 45.3 µM
GI50 [57]: 20.7 µM
TGI [57]: 49.8 µM

C[C@]12CCC(=O)CC1CC[C@@H]1C2CC[C@@]2(C)C1CC[C@@H]2OC(=O)CC[Se][Se]CCC(=O)O[C@H]1CCC2[C@@H]3CCC4CC(=O)CC[C@]4(C)C3CC[C@@]21C (some centres not stated)
GI50 [1]: 3.25 µM
TGI [1]: 9.36 µM
GI50 [2]: 4.15 µM
TGI [2]: > 100 µM
GI50 [3]: 2.73 µM
TGI [3]: 6.84 µM
GI50 [4]: 2.1 µM
TGI [4]: 4.52 µM
GI50 [5]: 2.2 µM
TGI [5]: 8.05 µM
GI50 [6]: 2.12 µM
TGI [6]: 5.07 µM
GI50 [7]: 3.63 µM
TGI [7]: 18.4 µM
GI50 [8]: 1.91 µM
TGI [8]: 3.85 µM
GI50 [9]: 1.82 µM
TGI [9]: 3.83 µM
GI50 [10]: 2.1 µM
TGI [10]: 4.79 µM
GI50 [11]: 1.94 µM
TGI [11]: 4.39 µM
GI50 [12]: 4.28 µM
TGI [12]: > 100 µM
GI50 [13]: 3.61 µM
TGI [13]: 13.2 µM
GI50 [14]: 1.86 µM
TGI [14]: 3.79 µM
GI50 [15]: 1.48 µM
TGI [15]: 3.02 µM
GI50 [16]: 2.61 µM
TGI [16]: 10.7 µM
GI50 [17]: 3.54 µM
TGI [17]: > 100 µM
GI50 [18]: 6.5 µM
TGI [18]: 25.1 µM
GI50 [19]: 4.81 µM
TGI [19]: 20 µM
GI50 [20]: 3.64 µM
TGI [20]: 16 µM
GI50 [21]: 2.52 µM
TGI [21]: 5.34 µM
GI50 [22]: 1.64 µM
TGI [22]: 5.09 µM
GI50 [23]: 2.13 µM
TGI [23]: 4.3 µM
GI50 [58]: 3.06 µM
TGI [58]: 9.84 µM
GI50 [24]: 2.44 µM
GI50 [25]: 2.22 µM
TGI [25]: 6.04 µM
GI50 [26]: 10 µM
TGI [26]: > 100 µM
GI50 [27]: 3.51 µM
TGI [27]: 15.6 µM
GI50 [28]: 9.1 µM
TGI [28]: 27.1 µM
GI50 [29]: 1.82 µM
TGI [29]: 3.75 µM
GI50 [30]: 3.17 µM
TGI [30]: 10.9 µM
GI50 [31]: 7.15 µM
TGI [31]: 17.4 µM
GI50 [32]: 2.84 µM
TGI [32]: 9.81 µM
GI50 [33]: 2.01 µM
TGI [33]: 4.16 µM
GI50 [34]: 3.03 µM
TGI [34]: 11.4 µM
GI50 [35]: 2.5 µM
TGI [35]: 6.01 µM
GI50 [37]: 2.08 µM
TGI [37]: 7.95 µM
GI50 [38]: 4.09 µM
TGI [38]: 14.5 µM
GI50 [39]: 1.76 µM
TGI [39]: 4.15 µM
GI50 [40]: 3.22 µM
TGI [40]: 10.5 µM
GI50 [41]: 2.25 µM
TGI [41]: 5.79 µM
GI50 [42]: 4.67 µM
TGI [42]: > 100 µM
GI50 [43]: 13.4 µM
TGI [43]: 31.6 µM
GI50 [44]: 2.55 µM
TGI [44]: 8.27 µM
GI50 [45]: 2.19 µM
TGI [45]: 5.05 µM
GI50 [46]: 2.17 µM
TGI [46]: 4.01 µM
GI50 [47]: 2.67 µM
TGI [47]: 5.7 µM
GI50 [48]: 2.01 µM
TGI [48]: 5.05 µM
GI50 [49]: 1.83 µM
TGI [49]: 3.63 µM
GI50 [50]: 1.77 µM
TGI [50]: 3.35 µM
GI50 [51]: 2.25 µM
TGI [51]: 6.43 µM
GI50 [52]: 2.86 µM
TGI [52]: 13 µM
GI50 [53]: 1.57 µM
TGI [53]: 3.36 µM
GI50 [54]: 2.28 µM
TGI [54]: 5.69 µM
GI50 [55]: 3.85 µM
TGI [55]: 12 µM
GI50 [56]: 5.03 µM
TGI [56]: > 100 µM
GI50 [57]: 2.02 µM
TGI [57]: 7.79 µM
